The values below come from US20240059688A1, “CONOLIDINE ANALOGUES AS SELECTIVE ACKR3 MODULATORS FOR THE TREATMENT OF CANCER” (Luxembourg Institute of Health (LIH), priority 2020, published 2024).

Holding throughout (assay type): cell-based
For one assay, the target named is T1, CCR3 (Homo sapiens, UniProt P51677).
T1 construct: expressed in transfected cells; host or cells: U87
T1 sequence (P51677 1-355): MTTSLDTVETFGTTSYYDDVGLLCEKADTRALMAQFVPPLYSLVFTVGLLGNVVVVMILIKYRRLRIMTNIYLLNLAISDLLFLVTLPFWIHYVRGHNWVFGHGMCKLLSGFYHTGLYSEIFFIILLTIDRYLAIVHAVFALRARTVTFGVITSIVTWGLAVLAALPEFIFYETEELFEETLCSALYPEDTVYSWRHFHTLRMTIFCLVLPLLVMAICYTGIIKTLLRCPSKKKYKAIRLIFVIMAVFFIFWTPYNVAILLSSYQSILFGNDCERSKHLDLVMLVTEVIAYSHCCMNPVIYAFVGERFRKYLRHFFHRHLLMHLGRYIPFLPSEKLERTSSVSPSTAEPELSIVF
Kind of assay: NanoBiT β-arrestin-1 recruitment, receptor selectivity panel, CCR3. The conditions noted are these: higher concentrations (3 μM, 10 μM); FIG. 3 sections B and C. The protocol: To further assess the selectivity profile of the compounds of the invention towards ACKR3, the ability to activate the 21 classical and 4 atypical chemokines receptors and related receptors was tested using the NanoBiT assay based β-arrestin-1 recruitment described previously. The 4 classical opioid receptors described above were also included in the experimental setup. The compounds WW-1 (conolidine) and WW-12 were tested at three different concentrations, 1 μM, 3 μM and 10 μM.
This possible off-target effect was further characterized by comparing the ability of the two molecules to activate receptors ACKR4, CX3CR1 and CCR3 with reference ligands for the receptors, namely CCL19, CX3CL1 and CCL13.
Ligand-induced β-arrestin recruitment to chemokine and opioid receptors was monitored by NanoLuc complementation assay (NanoBiT, Promega). […] Ligand-induced, β-arrestin to GPCRs was evaluated with a Mithras LB940 luminometer (Berthold Technologies, running on MicroWin 2010 5.19 software (Mikrotek Laborsysteme)) for 20 minutes.
For single dose screening experiments on all chemokine receptors(FIG. 3), the results are represented as percentage of signal monitored with 100 nM of one known agonist chemokine listed in the IUPHAR repository of chemokine receptor ligands which was added as positive control.
In general terms: Arrestin recruitment assays detect the binding of arrestin to an activated receptor.

Another assay addresses T2, ADRA2B (Homo sapiens, UniProt P18089).
T2 sequence (P18089 1-450): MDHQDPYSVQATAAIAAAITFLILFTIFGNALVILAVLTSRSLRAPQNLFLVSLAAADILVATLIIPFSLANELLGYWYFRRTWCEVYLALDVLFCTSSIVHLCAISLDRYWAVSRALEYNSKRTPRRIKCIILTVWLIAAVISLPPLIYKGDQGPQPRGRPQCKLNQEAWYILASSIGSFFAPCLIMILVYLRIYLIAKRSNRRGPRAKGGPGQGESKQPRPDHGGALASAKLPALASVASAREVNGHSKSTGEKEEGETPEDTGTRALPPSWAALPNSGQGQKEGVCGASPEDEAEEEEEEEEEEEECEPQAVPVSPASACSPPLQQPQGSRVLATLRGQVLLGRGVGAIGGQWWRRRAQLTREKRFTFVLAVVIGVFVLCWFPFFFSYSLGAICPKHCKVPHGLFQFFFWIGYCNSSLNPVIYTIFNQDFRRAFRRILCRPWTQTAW
Kind of assay: GPCR β-arrestin screening (PathHunter gpcrMAX/orphanMAX), ADRA2B. Particulars: conolidine 10 μM. The protocol: (§1) In an effort to identify the target of conolidine among the GPCR family, we undertook a large scale screening program using a β-arrestin recruitment assay based on β-galactosidase complementation (PathHunter, DiscoverX). Over 240 receptors were tested for their ability to be activated or inhibited by conolidine (10 μM) (data not shown). These included 168 GPCRs from the gpcrMAX panel, covering over 60 distinct receptor families such as adrenergic, dopamine, P2Y or serotonin and 74 GPCRs from the orphanMAX panel.

The next assay has as its target T3, ADRA2BC (Homo sapiens, UniProt P18825).
T3 sequence (P18825 1-462): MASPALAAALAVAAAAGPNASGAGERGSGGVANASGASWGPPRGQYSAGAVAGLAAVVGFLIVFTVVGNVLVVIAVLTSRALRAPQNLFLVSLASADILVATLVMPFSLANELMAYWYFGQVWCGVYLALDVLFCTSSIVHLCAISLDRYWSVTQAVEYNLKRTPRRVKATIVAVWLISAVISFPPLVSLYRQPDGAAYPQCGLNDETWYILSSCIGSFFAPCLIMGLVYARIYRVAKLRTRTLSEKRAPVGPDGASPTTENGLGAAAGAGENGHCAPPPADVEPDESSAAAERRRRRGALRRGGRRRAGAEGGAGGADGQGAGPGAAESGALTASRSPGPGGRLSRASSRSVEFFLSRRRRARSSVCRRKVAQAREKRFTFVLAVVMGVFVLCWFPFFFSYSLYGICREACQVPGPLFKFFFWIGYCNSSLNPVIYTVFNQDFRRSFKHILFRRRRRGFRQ
Kind of assay: GPCR β-arrestin screening (PathHunter gpcrMAX/orphanMAX), ADRA2BC. The conditions noted are these: conolidine 10 μM. The method, then:
as §1

In the next assay the target is KOR (Homo sapiens, UniProt P41145). The assay can be described thus: NanoBiT-based β-arrestin recruitment assay, KOR. Particulars: concentration range 0.15 nM to 80 μM; reference Dynorphin A. Also on record: expressed in transfected cells; host or cells: U87. The method, then: The ability of the different molecules to activate the four opioid receptors MOR, DOR, KOR and NOP that are known to mediate in vivo analgesic effects was tested using the NanoBiT-based β-arrestin-2 recruitment assay in a concentration range of 0.15 nM to 80 μM. For each of these receptors a reference ligand corresponding to an endogenous opioid peptide i.e. Met-enkephalin, BAM22, Dynorphin A and Nociceptin, respectively was included.
Sequence of KOR (P41145 whole entry): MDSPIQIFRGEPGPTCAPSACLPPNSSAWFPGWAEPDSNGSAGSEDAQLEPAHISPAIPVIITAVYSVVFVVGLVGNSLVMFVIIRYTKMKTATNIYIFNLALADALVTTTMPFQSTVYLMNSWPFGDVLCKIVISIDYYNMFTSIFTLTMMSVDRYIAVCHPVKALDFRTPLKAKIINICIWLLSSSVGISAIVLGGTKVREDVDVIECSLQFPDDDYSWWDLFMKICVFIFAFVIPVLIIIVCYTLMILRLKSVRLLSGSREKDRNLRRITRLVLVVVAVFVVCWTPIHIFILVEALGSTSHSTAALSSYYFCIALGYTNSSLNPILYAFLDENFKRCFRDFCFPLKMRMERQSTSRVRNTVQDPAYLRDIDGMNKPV
Ligand-induced β-arrestin recruitment to chemokine and opioid receptors was monitored by NanoLuc complementation assay (NanoBiT, Promega). In brief, 1.2×10^6 U87 cells were plated in 10-cm culture dishes and 48 hours later co-transfected with pNBe vectors encoding GPCRs (ACKR3, MOR, DOR, KOR, or NOP) C-terminally tagged with SmBiT and human β-arrestin-1 (arrestin-2) or β-arrestin-2 (arrestin-3) N-terminally fused to LgBiT. 48 hours post-transfection cells were harvested, incubated 25 minutes at 37° C. with Nano-Glo Live Cell substrate diluted 200-fold and distributed into white 96-well plates (5×10^4 cells per well). Ligand-induced, β-arrestin to GPCRs was evaluated with a Mithras LB940 luminometer (Berthold Technologies, running on MicroWin 2010 5.19 software (Mikrotek Laborsysteme)) for 20 minutes.
For concentration-response curves (FIG. 2), the signal recorded with a saturating concentration of full agonist for each receptor was set as 100%. […]

On to `C/C=C1/CN2CC[C@H]1C(=O)c1[nH]c3ccccc3c1C2` [WW-1, (4E,5R)-4-ethylidene-1,4,5,7-tetrahydro-2,5-ethanoazocino[4,3-b]indol-6(3H)-one], for which, at CCR3, the “activation of CCR3 (β-arrestin-1 recruitment) in receptor panel” value is “weak activation”. In addition, the “activity towards ADRA2B in GPCR screening” value at ADRA2B is given as “No activity was detected”. The “activity towards ADRA2BC in GPCR screening” value at ADRA2BC is “No activity was detected”. For the same compound, at KOR, the “activation of KOR (β-arrestin recruitment)” value is on record as “not active”.
Take `C/C=C1/CN(CCCCC)CC[C@H]1C(=O)c1cc2ccccc2[nH]1` [WW-12, [(3E,4R)-3-ethylidene-1-pentylpiperidin-4-yl](1H-indol-2-yl)methanone]: the “activation of CCR3 (β-arrestin-1 recruitment) in receptor panel” value at CCR3 is “weak activation”. The “activation of KOR (β-arrestin recruitment)” value at KOR is on record as “not active”.
